# Measured values reported in patent publication US20230148602A1, “BENZAMIDE COMPOUND AND HERBICIDE” (Nippon Soda Co., Ltd., priority 2020, published 2023).
# Experiments:
# Matricaria chamomilla = assay: Test Example 1 foliage treatment, weed killing rate; assay type: in vivo; conditions: foliar, 504 h, 250 g/ha active ingredient, foliage spray, after 3 weeks
# Experimental: (§1) POA allylphenyl ether (4.1 parts by weight), POE-POP glycol (1 part by weight), POE sorbitan laurate (0.8 parts by weight), glycerin (2.6 parts by weight), dimethylformamide (65.9 parts by weight), N-methylpyrrolidone (5.1 parts by weight), cyclohexanone (15.4 parts by weight), and aromatic hydrocarbons (5.1 parts by weight) were mixed to obtain an emulsion.
# (§2) The compound of the present invention (4 mg) was dissolved in this emulsion (100 μt) to obtain a test emulsion. POA means “polyoxyalkylene”, POE means “polyoxyethylene”, and POP means “polyoxypropylene”.
# (§3) In a 150 cm^2 pot filled with soil, seeds of Digitaria ciliaris, Amaranthus retroflexus, Alopecurus myosuroides and Matricaria chamomilla were respectively sown and covered lightly with soil. Thereafter, they were grown in a greenhouse. When each plant grew to a plant height of 2 to 5 cm, the above test emulsion was diluted with water and sprayed on the foliage with a small sprayer at a spray water volume of 250 L per hectare (the amount of active ingredient of 250 g per hectare).
# (§4) After 3 weeks, the above ground weights of weeds in the untreated and treated areas were measured for each plant, and the weed killing rate was calculated by the following calculation formula.
# (§5) Weed killing rate (%)=[{(above ground weight of weeds in untreated area)−(above ground weight of weeds in treated area)}/(above ground weight of weeds in untreated area)]×100
# Amaranthus retroflexus = assay: as above; assay type: in vivo; conditions: foliar, 504 h, 250 g/ha active ingredient, foliage spray, after 3 weeks
# Experimental: as §1, §2, §3, §4, §5
# Digitaria ciliaris = assay: as above; assay type: in vivo; conditions: foliar, 504 h, 250 g/ha active ingredient, foliage spray, after 3 weeks
# Experimental: as §1, §2, §3, §4, §5
# Alopecurus myosuroides [1] = assay: as above; assay type: in vivo; conditions: foliar, 504 h, 250 g/ha active ingredient, foliage spray, after 3 weeks
# Experimental: as §1, §2, §3, §4, §5
# Zea mays = assay: Test Example 2 foliage treatment, weed killing rate on maize (phytotoxicity); assay type: in vivo; conditions: foliage spray, after 4 weeks, crop (phytotoxicity to maize)
# Experimental: (§6) In a 150 cm^2 pot filled with soil, seeds of Alopecurus myosuroides, Setaria faberi and Zea mays were sown and covered lightly with soil. Thereafter, they were grown in a greenhouse. When Alopecurus myosuroides and Setaria faberi grew to a plant height of 2 to 5 cm and Zea mays grew to 30 to 35 cm, the test emulsion obtained in Test Example 1 was diluted with water and sprayed on the foliage with a small sprayer at a spray water volume of 250 L per hectare (the amount of active ingredient of 250 g, 63 g, or 16 g per hectare). Also for the compound represented by the formula (B) (Compound No. B-1), a test emulsion was obtained in the same manner as in Test Example 1, and Test Example 2 was carried out using the emulsion. After 4 weeks, the above ground weights of weeds in the untreated and treated areas were measured for each plant, and the weed killing rate was calculated by the following calculation formula. Weed killing rate (%)=[{(above ground weight of weeds in untreated area)−(above ground weight of weeds in treated area)}/(above ground weight of weeds in untreated area)]×100
# Alopecurus myosuroides [2] = assay: Test Example 2 foliage treatment, weed killing rate; assay type: in vivo; conditions: foliage spray, after 4 weeks
# Experimental: as §6
# Setaria faberi = assay: as above; assay type: in vivo; conditions: foliage spray, after 4 weeks
# Experimental: as §6
Structure (SMILES),melting point [°C],pest or weed control at 250 g/ha (Matricaria chamomilla) [%],pest or weed control at 250 g/ha (Amaranthus retroflexus) [%],pest or weed control at 250 g/ha (Digitaria ciliaris) [%],pest or weed control at 250 g/ha (Alopecurus myosuroides [1]) [%],also measured
"Cc1c(NC(=O)C(=O)N(C)C)c(Br)cc(F)c1C(=O)Nc1nnnn1C [A-1, N^1-(6-bromo-4-fluoro-2-methyl-3-((1-methyl-1H-tetrazol-5-yl)carbamoyl)phenyl)-N^2,N^2-dimethyloxalamide]",–,100,100,100,100,–
Cc1c(NC(=O)C(=O)N(C)CC(F)(F)F)c(Br)cc(F)c1C(=O)Nc1nnnn1C [A-3],–,100,100,100,100,Weed killing rate Zea mays (Zea mays; 16 g/ha active ingredient): 0%; Weed killing rate Zea mays (Zea mays; 63 g/ha active ingredient): 0%; Weed killing rate Zea mays (Zea mays; 250 g/ha active ingredient): 30%; Weed killing rate Alopecurus myosuroides (Alopecurus myosuroides [2]; 16 g/ha active ingredient): 80%; Weed killing rate Alopecurus myosuroides (Alopecurus myosuroides [2]; 63 g/ha active ingredient): 100%; Weed killing rate Alopecurus myosuroides (Alopecurus myosuroides [2]; 250 g/ha active ingredient): 100%; Weed killing rate Setaria faberi (Setaria faberi; 16 g/ha active ingredient): 50%; Weed killing rate Setaria faberi (Setaria faberi; 63 g/ha active ingredient): 100%; Weed killing rate Setaria faberi (Setaria faberi; 250 g/ha active ingredient): 100%
Cc1c(NC(=O)C(=O)N2CCOCC2)c(Br)cc(F)c1C(=O)Nc1nnnn1C [A-7],244 to 246,–,70,–,–,–
CCN(C)C(=O)C(=O)Nc1c(Br)cc(F)c(C(=O)Nc2nnnn2C)c1Cl [A-8],233 to 235,100,100,70,100,–
CCN(CC)C(=O)C(=O)Nc1c(Br)cc(F)c(C(=O)Nc2nnnn2C)c1Cl [A-9],220 to 223,100,80,70,100,–
CN(CC(F)(F)F)C(=O)C(=O)Nc1c(Br)cc(F)c(C(=O)Nc2nnnn2C)c1Cl [A-10],243 to 246,100,100,–,70,–
Cc1c(C(=O)Nc2nnnn2C)ccc(Br)c1NC(=O)C(=O)N(C)CC(F)(F)F [A-11],204 to 206,100,100,100,100,–
Cc1c(NC(=O)C(=O)N(C)CC(F)(F)F)cccc1C(=O)Nc1nnnn1C [A-12],104 to 107,–,–,–,–,–
Cc1c(NC(=O)C(=O)N2CCCC2)c(Br)cc(F)c1C(=O)Nc1nnnn1C [A-14],275 to 278,–,80,–,–,–
Cc1c(C(=O)Nc2nnnn2C)ccc(C(F)(F)F)c1NC(=O)C(=O)N(C)CC(F)(F)F [A-18],190 to 193,–,–,–,–,–
"Cc1c(NC(=O)N(C)CC(F)(F)F)c(Br)cc(F)c1C(=O)Nc1nnnn1C [B-1, reference compound]",–,–,–,–,–,Weed killing rate Zea mays (Zea mays; 16 g/ha active ingredient): 20%; Weed killing rate Zea mays (Zea mays; 63 g/ha active ingredient): 30%; Weed killing rate Zea mays (Zea mays; 250 g/ha active ingredient): 90%; Weed killing rate Alopecurus myosuroides (Alopecurus myosuroides [2]; 16 g/ha active ingredient): 40%; Weed killing rate Alopecurus myosuroides (Alopecurus myosuroides [2]; 63 g/ha active ingredient): 50%; Weed killing rate Alopecurus myosuroides (Alopecurus myosuroides [2]; 250 g/ha active ingredient): 90%; Weed killing rate Setaria faberi (Setaria faberi; 16 g/ha active ingredient): 20%; Weed killing rate Setaria faberi (Setaria faberi; 63 g/ha active ingredient): 50%; Weed killing rate Setaria faberi (Setaria faberi; 250 g/ha active ingredient): 100%

# Continued, in another order:
melting point [°C],Structure (SMILES),pest or weed control at 250 g/ha (Matricaria chamomilla) [%],pest or weed control at 250 g/ha (Amaranthus retroflexus) [%],pest or weed control at 250 g/ha (Digitaria ciliaris) [%],pest or weed control at 250 g/ha (Alopecurus myosuroides [1]) [%],also measured
191 to 194,CCN(C)C(=O)C(=O)Nc1c(Br)cc(F)c(C(=O)Nc2nnnn2C)c1C [A-2],100,100,100,100,–
179 to 181,COCCN(C)C(=O)C(=O)Nc1c(Br)cc(F)c(C(=O)Nc2nnnn2C)c1C [A-5],–,80,80,70,–
188 to 192,Cc1c(NC(=O)C(=O)N(C)C2CC2)c(Br)cc(F)c1C(=O)Nc1nnnn1C [A-6],100,100,80,90,–
198 to 201,CCN(CC)C(=O)C(=O)Nc1c(Br)cc(F)c(C(=O)Nc2nnnn2C)c1C [A-13],100,100,90,100,–
154 to 157,CCOC(=O)C(=O)Nc1c(Br)cc(F)c(C(=O)Nc2nnnn2C)c1C [A-15],–,–,–,–,–
221 to 223,CC(=O)C(=O)Nc1c(Br)cc(F)c(C(=O)Nc2nnnn2C)c1C [A-16],90,70,–,–,–
212 to 215,CON(C)C(=O)C(=O)Nc1c(Br)cc(F)c(C(=O)Nc2nnnn2C)c1C [A-17],–,–,–,–,–
